Source: ChEMBL document CHEMBL5303304, “EUbOPEN Chemogenomics Library - IncuCyte” (2023)

Columns and labels:
Assay type in all cases: toxicity, cell-based
[1] = test system: Fibroblast; test: Incucyte cell viability with human fibroblast; details: 10 µM, compound concentration 10 uM
[2] = test system: HEK-293T; test: Incucyte cell viability with HEK293T; details: human, 10 µM, compound concentration 10 uM
[3] = test system: U2OS; test: Incucyte cell viability with U2OS; details: human, 10 µM, compound concentration 10 uM
Further: unitless GR value; below 1 slowed growth and below 0 cell loss.

| Structure (SMILES) | Growth Rate ([1]; 6 h, replicate number 2) | Growth Rate ([1]; 12 h, replicate number 2) | Growth Rate ([1]; 18 h, replicate number 2) | Growth Rate ([1]; 24 h, replicate number 1) | Growth Rate ([2]; 0 h, replicate number 2) | Growth Rate ([2]; 6 h, replicate number 1) | Growth Rate ([2]; 12 h, replicate number 1) | Growth Rate ([2]; 12 h, replicate number 2) | Growth Rate ([2]; 18 h, replicate number 1) | Growth Rate ([2]; 18 h, replicate number 2) | Growth Rate ([2]; 24 h, replicate number 1) | Growth Rate ([2]; 24 h, replicate number 2) | Growth Rate ([3]; 6 h, replicate number 1) | Growth Rate ([3]; 12 h, replicate number 2) | Growth Rate ([3]; 18 h, replicate number 1) | Growth Rate ([3]; 18 h, replicate number 2) | Growth Rate ([3]; 24 h, replicate number 2) | Growth Rate ([1]; 0 h, replicate number 1) | Growth Rate ([1]; 24 h, replicate number 2) | Growth Rate ([3]; 0 h, replicate number 1) | also measured |
| --- | --- | --- | --- | --- | --- | --- | --- | --- | --- | --- | --- | --- | --- | --- | --- | --- | --- | --- | --- | --- | --- |
| Cc1cn([C@@H](C)CC#N)c(=O)c2cc(Cn3nc(C(F)F)cc3Cl)nn12 | 0.71 | 0.66 | 0.99 | 0.85 | 0.77 | 0.53 | 0.72 | 0.81 | 0.89 | 0.77 | 0.92 | 0.81 | 0.19 | 0.71 | 0.6 | 0.88 | 0.78 |  |  |  | Growth Rate ([2]; 6 h, replicate number 2): 0.84; Growth Rate ([3]; 12 h, replicate number 1): 0.51; Growth Rate ([3]; 24 h, replicate number 1): 0.73 |
| CNC(=O)c1c[nH]c2ccc(Nc3nccc(-c4ccccn4)n3)cc12 | 0.18 | 0.41 | 0.6 |  |  | 0.28 | 0.33 | 0.1 | 0.33 | 0.14 | 0.39 | 0.17 |  |  | 0.95 |  | 0.94 | -1 | 0.75 | 0.13 | Growth Rate ([1]; 12 h, replicate number 1): 0.8; Growth Rate ([2]; 6 h, replicate number 2): 0.09 |
| O=C(CCSCc1ccco1)NNC(=O)N1Cc2ccccc2Oc2ccc(Cl)cc21 | -0.43 | 0.45 | 0.53 | 0.8 |  |  |  |  | 0.93 |  | 0.96 |  | 0.95 | 0.92 |  |  | 0.92 | -1 | 0.72 |  | Growth Rate ([1]; 6 h, replicate number 1): 0.64; Growth Rate ([1]; 12 h, replicate number 1): 0.82; Growth Rate ([1]; 18 h, replicate number 1): 0.92 |
| CN(C)CCCNc1ccnc(Nc2cccc(Cl)c2)n1 | 0 | 0.34 | 0.45 | 0.56 |  | -0.38 | -0.19 | -0.09 | -0.03 | 0.04 | 0.02 | 0.29 | -0.98 | 0.65 |  | 0.64 | 0.47 | -0.99 | 0.38 | -1 | Growth Rate ([1]; 0 h, replicate number 2): 0.25; Growth Rate ([1]; 6 h, replicate number 1): 0.3; Growth Rate ([1]; 12 h, replicate number 1): 0.88; Growth Rate ([1]; 18 h, replicate number 1): 0.67; Growth Rate ([3]; 6 h, replicate number 2): 0.82 |
| Cc1nnc2n1-c1sc3c(c1C(c1ccccc1Cl)=NC2)C[C@@H](C(=O)N1CCOCC1)C3 |  | 0.81 |  |  | -0.7 |  |  |  |  |  |  |  | 0.49 |  |  |  |  |  | 0.86 | 0.65 | Growth Rate ([2]; 0 h, replicate number 1): -0.21; Growth Rate ([3]; 12 h, replicate number 1): 0.84 |
| CCc1nc(C2CCC2)n2nc(-c3ccccc3)[nH]c(=O)c12 | -0.72 | -0.29 | 0.5 |  | -0.05 | -0.09 | 0.44 | 0.76 | 0.64 | 0.76 | 0.75 | 0.91 | 0.84 |  |  | 0.95 |  |  | 0.86 | 0.68 |  |
| CNc1nc(-c2cc(C(=O)N3CCN(Cc4ccc(Cl)cc4)CC3)c(Cl)cn2)cs1 | -0.96 | -0.28 | -0.12 | 0.23 |  | 0.91 | 0.62 | 0.01 | 0.62 | 0.14 | 0.69 | 0.23 | -0.33 | 0.27 | 0.4 | 0.37 | 0.65 | -1 | 0.18 | -0.54 | Growth Rate ([1]; 6 h, replicate number 1): -0.5; Growth Rate ([1]; 12 h, replicate number 1): -0.19; Growth Rate ([1]; 18 h, replicate number 1): -0.06; Growth Rate ([2]; 6 h, replicate number 2): -0.49; Growth Rate ([3]; 0 h, replicate number 2): -0.41; Growth Rate ([3]; 6 h, replicate number 2): -0.21; Growth Rate ([3]; 12 h, replicate number 1): 0.1; Growth Rate ([3]; 24 h, replicate number 1): 0.37 |
| Nc1ccc(S(=O)(=O)Nc2ccnn2-c2ccccc2)cc1 [SULFAPHENAZOLE] |  |  |  | 0.6 |  | 0.11 | 0.6 |  | 0.44 | 0.98 | 0.45 |  | 0.27 | 1 | 0.83 | 0.88 | 0.91 | -0.67 |  |  | Growth Rate ([1]; 6 h, replicate number 1): -0.25; Growth Rate ([1]; 12 h, replicate number 1): -1; Growth Rate ([3]; 0 h, replicate number 2): -0.29; Growth Rate ([3]; 6 h, replicate number 2): 0.05; Growth Rate ([3]; 12 h, replicate number 1): 0.83; Growth Rate ([3]; 24 h, replicate number 1): 0.86 |
| CC(N)C1CCC(C(=O)Nc2ccncc2)CC1 (stereo not drawn) |  |  |  | 0.52 | 0.58 |  |  |  |  |  |  |  |  |  |  |  |  | -0.76 |  | 0.26 | Growth Rate ([1]; 18 h, replicate number 1): -0.47; Growth Rate ([2]; 0 h, replicate number 1): -0.35; Growth Rate ([3]; 0 h, replicate number 2): -0.73 |
| CN(C)Cc1cccc(NC(=C2C(=O)Nc3cc(C(=O)N(C)C)ccc32)c2ccccc2)c1 |  |  |  | 0.47 |  |  |  |  |  |  |  | 0.95 |  | 0.73 |  | 0.82 | 0.8 |  |  |  | Growth Rate ([1]; 6 h, replicate number 1): 0.08; Growth Rate ([1]; 12 h, replicate number 1): 0.68; Growth Rate ([1]; 18 h, replicate number 1): 0.68; Growth Rate ([3]; 6 h, replicate number 2): 0.99 |
| CN(C)C(=O)Cn1cc(-c2ccc(-c3cncc4ccccc34)cc2)cn1 | -0.33 | 0.98 |  |  | 0.39 | 0.92 |  |  |  |  |  |  | 0.46 | 0.83 | 0.99 |  |  | -1 |  | 0.61 | Growth Rate ([1]; 6 h, replicate number 1): 0.8; Growth Rate ([2]; 0 h, replicate number 1): 0.29; Growth Rate ([3]; 24 h, replicate number 1): 0.9 |
| Cc1c(N2CCNCC2)nc2ccc(Br)cc2c1C(=O)NC[C@H](CCC(=O)O)c1ccccc1Cl [BAY-403] | 0.04 | 0.12 | 0.51 |  | -0.32 | 0.58 |  | 0.81 | 0.76 | 0.9 | 0.88 |  | 0.58 |  | 0.91 |  |  | 0.47 | 0.7 | -0.04 | Growth Rate ([1]; 0 h, replicate number 2): 0.9; Growth Rate ([2]; 6 h, replicate number 2): 0.8; Growth Rate ([3]; 6 h, replicate number 2): 0.52; Growth Rate ([3]; 12 h, replicate number 1): 0.84; Growth Rate ([3]; 24 h, replicate number 1): 0.95 |
